From paper PMC5861127, “3-pyridyl inhibitors with novel activity against Trypanosoma cruzi reveal in vitro profiles can aid prediction of putative cytochrome P450 inhibition” (Scientific Reports, 2018) come the findings set out here.

The term Emax denotes the size of the effect at its maximum, as opposed to the concentration needed. As a reminder, the IC50 is the concentration that inhibits the measured activity by half.

Each structure is given as a SMILES string. Values joined by “and” are separate entries in the source; they are usually repeats but may differ in a detail not shown here. Equal values may be shown once.

The first assay concerns T. cruzi amastigotes. As to the kind of experiment: T. cruzi image-based assay (48 hour, intracellular amastigotes in 3T3 host cells). It counts as cell-based, Trypanosoma cruzi. The following applies: Trypanosoma cruzi, 48 h, DMSO stocks (CF from solid sample), relative to nifurtimox control, read-out: % activity (Emax). How it is done: The assay was performed as previously described. […] One wash was undertaken by using a Multidrop plate dispenser and two washes with a Bravo liquid handling device (Agilent Technologies, USA). Five microlitres of compound were added to plates and incubated for 48 hours. Cells were then fixed and stained with Hoechst (Life Technologies, USA) and HCS CellMaskTM Green (Life Technologies, USA) and image acquisition was performed an OperaTM High Content Screening System (PerkinElmer, USA) at 20 times magnification. […] The maximum activity achievable (Emax) of compounds was determined by taking (or as close to, if concentrations in the Emax were limited) the percentage activity at the mid concentration within the plateau of activity in the concentration response curve (see Supplemental Fig. 1, example NFX). […] Final assay concentrations of compounds ranged from 4.03 μM to 4.03 × 10^-3 μM. […] This was only undertaken for the amastigote assay. Dilutions were prepared with a multichannel pipette ([…], Thermo Fisher Scientific, USA) in 384-well polypropylene plates (Corning, NY, USA). […] Compound IC50 values in the TcCYP51 in vitro assay were calculated in GraFit (Erithacus software) by non-linear slope analysis. All data are presented as mean ± standard deviation. The significance of % clearance of parasites at compound Emax concentrations was calculated in Prism 5.0, using an unpaired student's t-test.
As for `CC(=O)N1CCC(N(Cc2cccnc2)C(=O)Nc2ccc(Cl)cc2)CC1` [Compound 3, 1-(1-Acetyl-4-piperidinyl)-3-(4-chlorophenyl)-1-(3-pyridinylmethyl)urea], the Emax was found to be 70.5 ± 0.707%.
On the same count and under the same terms, the figure for `CCOc1ccc(NC(=O)N(Cc2ccc(C)cc2)Cc2cccnc2)cc1` [Compound 4, 3-(4-Ethoxyphenyl)-1-(4-methylbenzyl)-1-(3-pyridinylmethyl)urea] is 76 ± 1.41%; for `Cc1ccc(CN(Cc2cccnc2)C(=O)Nc2ccc(Cl)c(Cl)c2)cc1` [Compound 5, 3-(3,4-Dichlorophenyl)-1-(4-methylbenzyl)-1-(3-pyridinylmethyl)urea] it is 88 ± 9.9%.

Still in this assay, the particulars now being: Trypanosoma cruzi, NIH3T3, 48 h, intracellular amastigotes in 3T3 cells, retested from DMSO stocks (CF from solid sample, temporal experiments).
As for `CC(=O)N1CCC(N(Cc2cccnc2)C(=O)Nc2ccc(Cl)cc2)CC1` [Compound 3, 1-(1-Acetyl-4-piperidinyl)-3-(4-chlorophenyl)-1-(3-pyridinylmethyl)urea], the half-maximal inhibitory concentration (IC50) was determined as 1290 ± 368 nM.
Same read-out and setting: the same measure for `CCOc1ccc(NC(=O)N(Cc2ccc(C)cc2)Cc2cccnc2)cc1` [Compound 4, 3-(4-Ethoxyphenyl)-1-(4-methylbenzyl)-1-(3-pyridinylmethyl)urea]: 1400 ± 79.9 nM.
The same measure, in the same setting: the same measure for `Cc1ccc(CN(Cc2cccnc2)C(=O)Nc2ccc(Cl)c(Cl)c2)cc1` [Compound 5, 3-(3,4-Dichlorophenyl)-1-(4-methylbenzyl)-1-(3-pyridinylmethyl)urea]: 1800 ± 3.54 nM; for `COc1ccc(C[C@H](N)C(=O)N[C@H]2[C@@H](O)[C@H](n3cnc4c(N(C)C)ncnc43)O[C@@H]2CO)cc1` [PURO, puromycin]: 2010 ± 329 nM.

The assay is the same for the next values; noted with them: intracellular amastigotes in 3T3 cells, retested from DMSO stocks (CF from solid sample, temporal experiments).
On to `Cc1ccc(CN(Cc2cccnc2)C(=O)Nc2ccc(Cl)c(Cl)c2)cc1` [Compound 5, 3-(3,4-Dichlorophenyl)-1-(4-methylbenzyl)-1-(3-pyridinylmethyl)urea], for which the IC50 is 1820 ± 3.54 nM.

The same assay, now with this note: n of 4.
In the case of `COc1ccc2sc(N(Cc3cccnc3)C(=O)c3ccc(C#N)cc3)nc2c1` [MMV001239], the “percentage activity at the Emax, 48 hours incubation (temporal experiments, Fig. 3)” value is 85 ± 6.4% and 84.8%.

The next assay has as its system T. cruzi epimastigotes. As to the kind of experiment: 120 hour T. cruzi epimastigote assay (PrestoBlue). It counts as cell-based. The following applies: Trypanosoma cruzi. On the procedure:
Additions were made with a Multidrop dispenser and compounds were added directly following parasite addition. Plates were incubated for 112 hours before the addition 10 µL of PrestoBlue® viability reagent (Thermo Fisher, USA). […] The positive control was NFX at a final concentration of 14.20 µM and 0.433% DMSO as a negative control.
In turn, `COc1ccc(C[C@H](N)C(=O)N[C@H]2[C@@H](O)[C@H](n3cnc4c(N(C)C)ncnc43)O[C@@H]2CO)cc1` [PURO, puromycin] came in with a half-maximal inhibitory concentration (IC50) of 566 ± 141 nM.

The next assay deals with 3T3 host cells. As to the kind of experiment: 3T3 host cell activity in the T. cruzi image-based assay. On the set-up: species or system mouse. Particulars: Mus musculus, NIH3T3; 48 hours; no activity up to top concentration; read-out: IC50 value against 3T3 cells used for SI. How it is done: To calculate compound activity, 12.0 µM NFX was used as a positive control and 0.366% DMSO was used as a negative control. To determine the activity against the host cell, 30.0 µM of puromycin was used as a positive control. The percentage normalised activity was determined using the equation outlined in our previous publication[19] and the reproducibility of the assay was determined using the Z’-factor[20].
The assay was performed as previously described. Briefly, 3T3 cells were seeded at a concentration of 1 × 10^3 cells in 50 µL per well into collagen I coated 384-well plates (PerkinElmer, USA). Following 24 hours incubation at 37 °C and 5% CO2, 10 µL of parasites were added to wells at a multiplicity of infection (MOI) of 5:1 (parasites: host cells) with a Multidrop™ dispenser (Thermo Fisher, USA). Following 24 hours incubation, wells were washed with PBS (containing Mg^2+ and Ca^2+) to remove uninfected parasites. One wash was undertaken by using a Multidrop plate dispenser and two washes with a Bravo liquid handling device (Agilent Technologies, USA). Five microlitres of compound were added to plates and incubated for 48 hours. Cells were then fixed and stained with Hoechst (Life Technologies, USA) and HCS CellMask™ Green (Life Technologies, USA) and image acquisition was performed an Opera™ High Content Screening System (PerkinElmer, USA) at 20 times magnification. The positive control was 12.0 µM NFX and the negative control was 0.366% DMSO.
With `CC(=O)N1CCC(N(Cc2cccnc2)C(=O)Nc2ccc(Cl)cc2)CC1` [Compound 3, 1-(1-Acetyl-4-piperidinyl)-3-(4-chlorophenyl)-1-(3-pyridinylmethyl)urea], the CC50 is more than 18300 nM.
The same measure, in the same setting: the figure for `CCOc1ccc(NC(=O)N(Cc2ccc(C)cc2)Cc2cccnc2)cc1` [Compound 4, 3-(4-Ethoxyphenyl)-1-(4-methylbenzyl)-1-(3-pyridinylmethyl)urea] is more than 18300 nM; for `Cc1ccc(CN(Cc2cccnc2)C(=O)Nc2ccc(Cl)c(Cl)c2)cc1` [Compound 5, 3-(3,4-Dichlorophenyl)-1-(4-methylbenzyl)-1-(3-pyridinylmethyl)urea] it is more than 18300 nM.

The assay is the same for the next values; noted with them: ratio 3T3 host cell / parasite IC50, 48 hours.
In the case of `CC(=O)N1CCC(N(Cc2cccnc2)C(=O)Nc2ccc(Cl)cc2)CC1` [Compound 3, 1-(1-Acetyl-4-piperidinyl)-3-(4-chlorophenyl)-1-(3-pyridinylmethyl)urea], the “SI to 3T3” value is on record as more than 14.2.
The same measure, in the same setting: the figure for `CCOc1ccc(NC(=O)N(Cc2ccc(C)cc2)Cc2cccnc2)cc1` [Compound 4, 3-(4-Ethoxyphenyl)-1-(4-methylbenzyl)-1-(3-pyridinylmethyl)urea] is more than 13.1; for `Cc1ccc(CN(Cc2cccnc2)C(=O)Nc2ccc(Cl)c(Cl)c2)cc1` [Compound 5, 3-(3,4-Dichlorophenyl)-1-(4-methylbenzyl)-1-(3-pyridinylmethyl)urea] it is more than 10.0.
On to `COc1ccc(C[C@H](N)C(=O)N[C@H]2[C@@H](O)[C@H](n3cnc4c(N(C)C)ncnc43)O[C@@H]2CO)cc1` [PURO, puromycin], for which the “SI to 3T3” value amounted to 1.36.

For another assay, the target named is recombinant TcCYP51 (Trypanosoma cruzi, UniProt Q7Z1V1).
recombinant TcCYP51, sequence (Q7Z1V1 whole entry): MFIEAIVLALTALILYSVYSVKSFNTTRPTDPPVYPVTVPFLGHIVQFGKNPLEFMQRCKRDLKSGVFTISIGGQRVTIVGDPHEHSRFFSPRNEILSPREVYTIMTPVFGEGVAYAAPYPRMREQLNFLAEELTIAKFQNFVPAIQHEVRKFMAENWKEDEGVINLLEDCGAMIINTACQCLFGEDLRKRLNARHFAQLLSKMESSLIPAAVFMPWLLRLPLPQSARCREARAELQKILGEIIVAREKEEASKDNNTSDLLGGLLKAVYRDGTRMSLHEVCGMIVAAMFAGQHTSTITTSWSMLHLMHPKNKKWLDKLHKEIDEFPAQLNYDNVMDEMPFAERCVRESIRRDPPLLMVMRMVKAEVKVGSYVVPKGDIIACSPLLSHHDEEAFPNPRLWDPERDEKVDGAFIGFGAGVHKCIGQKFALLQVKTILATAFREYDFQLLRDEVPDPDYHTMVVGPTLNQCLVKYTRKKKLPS
Assay: not given
It counts as biochemical. The following applies: single concentration response curve; read-out: IC50 value against recombinant TcCYP51, preliminary. On the procedure: The activity of compounds against TcCYP51 was determined at the University of Dundee as outlined previously. This assay utilises the fluorogenic probe benzyloxymethyloxycyanocoumarin (BOMCC), activated by TcCYP51. […] Preliminarily testing of MMV001239 was performed using this assay, with 1 replicate concentration response curve generated to establish whether it was a putative TcCYP51 inhibitor.
Compound IC50 values in the T. cruzi and HEK293 cell-based assays were determined using Prism 5.0 (GraphPad software), derived by a sigmoidal concentration response (variable slope) analysis. Compound IC50 values in the TcCYP51 in vitro assay were calculated in GraFit (Erithacus software) by non-linear slope analysis. All data are presented as mean ± standard deviation. The significance of % clearance of parasites at compound Emax concentrations was calculated in Prism 5.0, using an unpaired student’s t-test.
Take `COc1ccc2sc(N(Cc3cccnc3)C(=O)c3ccc(C#N)cc3)nc2c1` [MMV001239]: the IC50 amounted to 46 nM.

For another assay, the system named is HEK293 cells. The assay can be described thus: HEK293 assay (resazurin). It counts as cell-based, human. The following applies: 120 hours; HEK293 / epimastigote IC50; NA = SI cannot be determined, tested to 79.4 µM. How it is done: […] […] Plates were incubated for 24 hours before the addition of compounds. […] The positive control was 32.5 μM puromycin and the negative control was 0.433% DMSO, slightly different to the T. cruzi assay due to the change in volume, whilst utilising the same stock control plate. […] […] […] This was only undertaken for the amastigote assay. Dilutions were prepared with a multichannel pipette ([…], Thermo Fisher Scientific, USA) in 384-well polypropylene plates (Corning, NY, USA).
On to `COc1ccc(C[C@H](N)C(=O)N[C@H]2[C@@H](O)[C@H](n3cnc4c(N(C)C)ncnc43)O[C@@H]2CO)cc1` [PURO, puromycin], for which the “SI to HEK293 cells” value is given as 0.386.
